Source: publication PMC4015874, “Effects of Allium victorialis leaf extracts and its single compounds on aldose reductase, advanced glycation end products and TGF-β1 expression in mesangial cells” (BMC Complementary and Alternative Medicine, 2013)
“Also recorded” adds a separate entry of the source.

Key:
[1] = target: T1, crude rat lens AR (aldose reductase) (Rattus norvegicus, UniProt P07943); assay: Rat lens AR activity; assay type: biochemical
T1 construct: the supernatant was used as crude rat lens AR; from tissue; host or cells: lens of 8-week-old Sprague-Dawley rats (supernatant of the homogenate)
Protocol: AR activity was measured as described previously. All animal procedures were approved by the Korea Institute of Oriental Medicine Institutional Animal Care Committee on animal care at our institute and conducted according to institutional guidelines. […] The homogenate was centrifuged at 14,000 rpm for 30 min, and the supernatant was used as crude rat lens AR. […] The reaction was initiated by the addition of NADPH at 37°C and stopped by the addition of 0.15 ml of 0.5 N HCl. Next, 0.5 ml of 6 M NaOH containing 10 mM imidazole was added, and the solution was heated at 60°C for 15 min to convert NADP to a fluorescent product.

[2] = system: AGEs formation; assay: AGEs formation assay (BSA with fructose and glucose, fluorescence); assay type: biochemical; details: BSA with 0.2 M fructose and glucose, 37°C, 7 days
Protocol: AGEs formation assay was performed as previously described. Bovine serum albumin (BSA, 10 mg/ml, Sigma-Aldrich) in 50mM phosphate buffer (pH 7.4) with containing 0.02% sodium azide to prevent bacterial growth was added to 0.2 M fructose and glucose. The reaction mixture was then mixed with compounds or aminoguanidine (AG, Sigma-Aldrich). After incubating at 37°C for 7 days, the fluorescent reaction products were assayed on a spectrofluorometric detector (BIO-TEK, Synergy HT, Ex: 350 nm/Em: 450 nm). AGEs assay was performed in quadruplicate.

[3] = target: T2, human RAGE (hRAGE) (Homo sapiens, UniProt Q15109); assay: Live cell-based AGE-BSA/RAGE binding in hRAGE-overexpressing cells; details: hRAGE-overexpressing MMCs, Alexa Fluor 488-labeled AGE-BSA, 6 h
T2 construct: expressed in transfected cells; host or cells: mouse kidney mesangial cells (MMCs) overexpressing hRAGE
T2 sequence (Q15109 23-404): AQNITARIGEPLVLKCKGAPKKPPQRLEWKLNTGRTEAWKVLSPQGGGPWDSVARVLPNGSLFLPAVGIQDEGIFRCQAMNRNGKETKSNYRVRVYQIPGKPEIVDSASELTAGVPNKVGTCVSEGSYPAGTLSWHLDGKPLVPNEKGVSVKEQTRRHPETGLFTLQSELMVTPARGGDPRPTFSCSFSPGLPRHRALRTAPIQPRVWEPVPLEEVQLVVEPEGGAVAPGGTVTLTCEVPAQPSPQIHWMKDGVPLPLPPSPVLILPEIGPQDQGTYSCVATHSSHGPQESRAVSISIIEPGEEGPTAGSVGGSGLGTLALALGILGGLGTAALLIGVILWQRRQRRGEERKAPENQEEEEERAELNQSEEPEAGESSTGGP
Protocol: AGE-BSA/RAGE binding in the cells was determined as described previously. Briefly, Alexa 488 labeling of AGE-BSA was performed using the Alexa Fluor® 488 protein labeling kit (Molecular Probes, Eugene, OR). For the binding assay, human RAGE-overexpressing cells (1×10^4) were seeded onto a 96-well assay plate with a clear bottom lid and black plate (Corning, NY) and incubated with serum-free media for 24 h. Before binding, 3% BSA was added for 30 min to block non-specific binding. Cells were treated with 5 μg of Alexa Fluor 488-labeled AGE-BSA in a total volume of 100 μl serum-free medium and incubated in the dark for 6 h in a 5% CO2 humidified atmosphere at 37°C. Compounds were added after the addition of AGE-BSA-Alexa Fluor 488 to hRAGE-overexpressing cells. The non-specific binding of AGE-BSA-Alexa Fluor 488 to cell surface proteins other than hRAGE was compared by incubating cells with untreated cells (blank). After binding, 100 μl Opti-MEM were added to the washed plates, and the plates were then analyzed using a microtiter plate reader (Bio-Tek, Winooski, VT) with excitation and emission wavelengths of 485 and 528 nm, respectively.

[4] = system: TGF-β1 mRNA expression in mouse kidney mesangial cells (MMCs); assay: High glucose-induced TGF-β1 mRNA expression in MMCs (RT-PCR); assay type: cell-based; details: high glucose 48 h, 10 μM compound
Protocol: Mouse kidney mesangial cells (SV40 MES13, MMC) were obtained from the American Type Culture Collection (#CRL-1927, Rockville, MD) and cultured in Dulbecco's modified Eagle's medium:F-12 (3:1) supplemented with 14 mM HEPES, penicillin 100 U/ml, streptomycin 100 μg/ml, and 5% fetal bovine serum. Cells were routinely grown to confluence in a humidified 37°C, 5% CO2 incubator.
Total cellular RNA was extracted with TRIzol (Invitrogen, Carlsbad, CA), quantified by measuring the absorbance at 260 nm, and stored at -80°C until analysis. The expression of TGF-β1 and GAPDH mRNAs was detected by RT-PCR analysis. The extracted RNA (1 μg) was subjected to a reverse transcriptase reaction with the Maxime RT premix (Intron, Daejeon, Korea) at 42°C for 60 min and 72°C for 10 min. Subsequently, semi-quantitative PCR was performed with Accupower® PCR premix (Intron, Daejeon, Korea). The primer sequences were as follows: mouse TGF-β1 (sense) 5’- TGAACCAAGGAGACGGAATACAGG -3’, (anti-sense) 5'- GCCATGAGGAGCAGGAAGGG -3’ and mouse GAPDH (sense) 5’- ACGGCAAATTCAACGGCACAG -3’, (anti-sense) 5’- AGACTCCACGACATACTCAGCAC -3’. Aliquots of PCR products were electrophoresed on 1.2% agarose gels and visualized after ethidium bromide staining.

[5] = system: secreted TGF-β1 in mouse kidney mesangial cells (MMCs); assay: High glucose-induced TGF-β1 secretion in MMCs (ELISA); assay type: cell-based; details: high glucose 48 h, 10 μM compound, ELISA of medium
Protocol: Mouse kidney mesangial cells (SV40 MES13, MMC) were obtained from the American Type Culture Collection (#CRL-1927, Rockville, MD) and cultured in Dulbecco's modified Eagle's medium:F-12 (3:1) supplemented with 14 mM HEPES, penicillin 100 U/ml, streptomycin 100 μg/ml, and 5% fetal bovine serum. Cells were routinely grown to confluence in a humidified 37°C, 5% CO2 incubator. The levels of TGF-β1 in the medium were determined as described previously. […] This medium was then harvested and TGF-β1 was activated by treatment with 1 N HCl (0.1 ml/0.5 ml of conditioned media) for 10 min at room temperature, then 0.1 ml 1.2 N NaOH/0.5 M HEPES was added. Quantikine mouse TGF-β1 ELISA (R&D systems, Minneapolis, MN) was performed according to the manufacturer’s protocol, and the TGF-β1 levels were normalized to those of total protein.

SMILES	IC50 ([1]; DL-glyceraldehyde substrate) [µM]	IC50 [2] [µM]	AR inhibitory potency compared with positive control TMG [1]	also measured
N=C(N)NN [Aminoguanidine, aminoguanidine, reference compound]		1030 ± 70		AGEs IC50 [2]: 76.47 ± 4.81 µg/mL
O=C(O)C=Cc1ccc(O)cc1 [Compound 7, 4-hydroxycinnamic acid]	> 50	9.92 ± 0.11		
O=c1c(O)c(-c2ccc(O)c(O)c2)oc2cc(O)cc(O)c12 [Compound 6, quercetin]		27.1 ± 0.11	significantly more potent	
C[C@@H]1O[C@@H](Oc2c(-c3ccc(O)c(O)c3)oc3cc(O)cc(O)c3c2=O)[C@H](O)[C@H](O)[C@H]1O [Compound 4, quercitrin]	0.17 ± 0.1	4.2 ± 0.04	significantly more potent	Inhibition of AGE-RAGE binding [3]: significantly inhibited; Inhibition of AGE-RAGE binding ([3]; listed as quercitrin): disrupted AGE-RAGE binding in a concentration-dependent manner

Continued, in another order:

IC50 ([1]; DL-glyceraldehyde substrate) [µM]	IC50 [2] [µM]	SMILES	AR inhibitory potency compared with positive control TMG [1]	also measured
> 50	56.4 ± 1.39	O=c1c(O[C@@H]2O[C@H](CO)[C@@H](O)[C@H](O)[C@H]2O)c(-c2ccc(O)cc2)oc2cc(O[C@@H]3O[C@H](CO)[C@@H](O)[C@H](O)[C@H]3O)cc(O)c12 [Compound 2, Kaempferol 3,7-O-β-D-diglucopyranoside]		
1.1 ± 0.63	36 ± 1.4	O=c1c(O)c(-c2ccc(O)cc2)oc2cc(O)cc(O)c12 [Compound 5, kaempferol]	significantly more potent	
9.77 ± 0.33	59.7 ± 1.22	O=c1c(O[C@@H]2O[C@H](CO)[C@@H](O)[C@H](O)[C@H]2O)c(-c2ccc(O[C@@H]3O[C@H](CO)[C@@H](O)[C@H](O)[C@H]3O)cc2)oc2cc(O)cc(O)c12 [Compound 3, kaempferol 3,4’-O-β-D-diglucopyranoside]		
> 50	> 100	O=c1c(O[C@@H]2O[C@H](CO)[C@@H](O)[C@H](O)[C@H]2O)c(-c2ccc(O[C@@H]3O[C@H](CO)[C@@H](O)[C@H](O)[C@H]3O)cc2)oc2cc(O[C@@H]3O[C@H](CO)[C@@H](O)[C@H](O)[C@H]3O)cc(O)c12 [Compound 1, Kaempferol 3,7,4’-O-β-D-triglucopyranoside]		
5.07 ± 0.06		O=C(O)CC1(CC(=O)O)CCCC1 [Tetramethyleneglutaric acid, 3,3-tetramethyleneglutaric acid, reference compound]		AR IC50 ([1]; DL-glyceraldehyde substrate): 0.94 ± 0.01 µg/mL
> 50	7.5 ± 0.2	COc1cc(/C=C/C(=O)O)ccc1O [Compound 8, ferulic acid]		Inhibition of high glucose-induced TGF-β1 mRNA expression [4]: greatest inhibitory effect; Inhibition of high glucose-induced TGF-β1 mRNA expression ([4]; listed as ferulic acid): significantly reduced; also recorded: reduces; Inhibition of high glucose-induced TGF-β1 secretion [5]: significantly reduced; also recorded: reduces
